Results as given in ChEMBL document CHEMBL4680137, “Synthesis and biological evaluation of some novel 1,2,3-triazole hybrids of myrrhanone B isolated from Commiphora mukul gum resin: Identification of potent antiproliferative leads active against prostate cancer cells (PC-3)” (Eur J Med Chem, 2020).
The source made the active and inactive calls. No cut-off for these calls is given here.

Columns and labels:
PC-3 [1] = experiment: Induction of apoptosis in human PC-3 cells after 24 hrs by Annexin VFITC/PI staining based flow cytometric analysis; type: functional, cell-based
PC-3 [2] = experiment: Induction of apoptosis in human PC-3 cells assessed as early apoptotic cells at 7.5 uM after 24 hrs by Annexin VFITC/PI staining based flow cytometric analysis (reference value: 0.1%); type: functional
PC-3 [3] = experiment: Induction of cell cycle arrest in human PC-3 cells assessed as accumulation at G2/M phase at 10 uM after 48 hrs by propidium iodide staining based flow cytometric analysis (reference value: 20.7%); type: functional
PC-3 [4] = experiment: Induction of apoptosis in human PC-3 cells assessed as condensed chromatin at 5 to 10 uM after 48 hrs by Hoechst 33258 staining fluorescence microscopic analysis; type: functional, cell-based; conditions: dose 5-10 µM
PC-3 [5] = experiment: Induction of apoptosis in human PC-3 cells assessed as late apoptotic cells at 5 uM after 24 hrs by Annexin VFITC/PI staining based flow cytometric analysis (reference value: 0.2%); type: functional
[6] = Inhibition of Saccharomyces cerevisiae alpha-glucosidase using p-nitophenyl alpha […]D-glucoside incubated for 45 mins
PC-3 [7] = experiment: Induction of apoptosis in human PC-3 cells assessed as destructive fragmentation of nuclei at 5 to 10 uM after 48 hrs by acridine orange and ethidium bromide staining fluorescence microscopic analysis; type: functional, cell-based; conditions: dose 5-10 µM
PC-3 [8] = experiment: Induction of cell cycle arrest in human PC-3 cells assessed as accumulation at Sub-G1 phase at 10 uM after 48 hrs by propidium iodide staining based flow cytometric analysis (reference value: 3.58%); type: functional
PC-3 [9] = experiment: Induction of apoptosis in human PC-3 cells assessed as early apoptotic cells at 2.5 uM after 24 hrs by Annexin VFITC/PI staining based flow cytometric analysis (reference value: 0.1%); type: functional
PC-3 [10] = experiment: Induction of cell cycle arrest in human PC-3 cells assessed as accumulation at G0/G1 phase at 10 uM after 48 hrs by propidium iodide staining based flow cytometric analysis (reference value: 67.6%); type: functional
PC-3 [11] = experiment: Induction of apoptosis in human PC-3 cells assessed as necrotic cells at 2.5 uM after 24 hrs by Annexin VFITC/PI staining based flow cytometric analysis (reference value: 4%); type: functional
PC-3 [12] = experiment: Induction of apoptosis in human PC-3 cells assessed as horse shoe shaped nuclei at 5 to 10 uM after 48 hrs by Hoechst 33258 staining fluorescence microscopic analysis; type: functional, cell-based; conditions: dose 5-10 µM
PC-3 [13] = experiment: Induction of apoptosis in human PC-3 cells assessed as fragmented nuclei at 5 to 10 uM after 48 hrs by Hoechst 33258 staining fluorescence microscopic analysis; type: functional, cell-based; conditions: dose 5-10 µM
PC-3 [14] = experiment: Induction of apoptosis in human PC-3 cells assessed as necrotic cells at 7.5 uM after 24 hrs by Annexin VFITC/PI staining based flow cytometric analysis (reference value: 4%); type: functional
U-87 MG = experiment: Antiproliferative activity against human U87 cells assessed as reduction in cell viability after 48 hrs by MTT assay; type: functional, cell-based, U-87MG ATCC
PC-3 [15] = experiment: Induction of cell cycle arrest in human PC-3 cells assessed as accumulation at G2/M phase at 5 uM after 48 hrs by propidium iodide staining based flow cytometric analysis (reference value: 20.7%); type: functional
PC-3 [16] = experiment: Induction of cell cycle arrest in human PC-3 cells assessed as accumulation at S phase at 10 uM after 48 hrs by propidium iodide staining based flow cytometric analysis (reference value: 7.69%); type: functional
DU-145 = experiment: Antiproliferative activity against human DU-145 cells assessed as reduction in cell viability after 48 hrs by MTT assay; type: functional, cell-based; conditions: DU-145, 48 h
PC-3 [17] = experiment: Induction of cell cycle arrest in human PC-3 cells assessed as accumulation at S phase at 5 uM after 48 hrs by propidium iodide staining based flow cytometric analysis (reference value: 7.69%); type: functional
L132 = experiment: Cytotoxicity against human L132 cells assessed as reduction in cell viability after 48 hrs by MTT assay; type: cell-based; conditions: L132, 48 h
PC-3 [18] = experiment: Induction of apoptosis in human PC-3 cells assessed as late apoptotic cells at 2.5 uM after 24 hrs by Annexin VFITC/PI staining based flow cytometric analysis (reference value: 0.2%); type: functional
PC-3 [19] = experiment: Induction of apoptosis in human PC-3 cells assessed as viable cells at 5 uM after 24 hrs by Annexin VFITC/PI staining based flow cytometric analysis (reference value: 95.8%); type: functional; conditions: read-out: Activity
PC-3 [20] = experiment: Antiproliferative activity against human PC3 cells assessed as reduction in cell viability after 48 hrs by MTT assay; type: functional, cell-based; conditions: PC-3, 48 h
PC-3 [21] = experiment: Induction of mitochondrial membrane potential loss in human PC-3 cells at 10 uM after 24 hrs by JC-1 dye based flow cytometric analysis relative to control; type: functional
A549 = experiment: Antiproliferative activity against human A549 cells assessed as reduction in cell viability after 48 hrs by MTT assay; type: functional, cell-based; conditions: A549, 48 h
MDA-MB-231 = experiment: Antiproliferative activity against human MDA-MB-231 cells assessed as reduction in cell viability after 48 hrs by MTT assay; type: functional, cell-based; conditions: MDA-MB-231, 48 h
PC-3 [22] = experiment: Induction of cell cycle arrest in human PC-3 cells assessed as accumulation at G0/G1 phase at 5 uM after 48 hrs by propidium iodide staining based flow cytometric analysis (reference value: 67.6%); type: functional
SiHa = experiment: Antiproliferative activity against human SiHa cells assessed as reduction in cell viability after 48 hrs by MTT assay; type: functional, cell-based
PC-3 [23] = experiment: Induction of apoptosis in human PC-3 cells assessed as late apoptotic cells at 7.5 uM after 24 hrs by Annexin VFITC/PI staining based flow cytometric analysis (reference value: 0.2%); type: functional
PC-3 [24] = experiment: Induction of apoptosis in human PC-3 cells assessed as viable cells at 7.5 uM after 24 hrs by Annexin VFITC/PI staining based flow cytometric analysis (reference value: 95.8%); type: functional; conditions: read-out: Activity
PC-3 [25] = experiment: Induction of apoptosis in human PC-3 cells assessed as early apoptotic cells at 5 uM after 24 hrs by Annexin VFITC/PI staining based flow cytometric analysis (reference value: 0.1%); type: functional
PC-3 [26] = experiment: Induction of apoptosis in human PC-3 cells assessed as condensed chromatin at 5 to 10 uM after 48 hrs by acridine orange and ethidium bromide staining fluorescence microscopic analysis; type: functional, cell-based; conditions: dose 5-10 µM
PC-3 [27] = experiment: Induction of ROS generation in human PC-3 cells at 10 uM incubated for 6 hrs by DSCFDA staining based spectroflurometric method; type: functional, cell-based
PC-3 [28] = experiment: Induction of apoptosis in human PC-3 cells assessed as viable cells at 2.5 uM after 24 hrs by Annexin VFITC/PI staining based flow cytometric analysis (reference value: 95.8%); type: functional; conditions: read-out: Activity
PC-3 [29] = experiment: Induction of apoptosis in human PC-3 cells assessed as necrotic cells at 5 uM after 24 hrs by Annexin VFITC/PI staining based flow cytometric analysis (reference value: 4%); type: functional
HT-29 = experiment: Antiproliferative activity against human HT-29 cells assessed as reduction in cell viability after 48 hrs by MTT assay; type: functional, cell-based; conditions: HT-29, 48 h
PC-3 [30] = experiment: Induction of cell cycle arrest in human PC-3 cells assessed as accumulation at Sub-G1 phase at 5 uM after 48 hrs by propidium iodide staining based flow cytometric analysis (reference value: 3.58%); type: functional
[31] = Inhibition of LPS-induced TNF-alpha expression in human U-937 cells preincubated for 1 hr followed by LPS addition and measured after 24 hrs by ELISA; type: functional, cell-based
Saccharomyces cerevisiae [32] = experiment: Potency index, ratio of acarbose IC50 to test compound IC50 for inhibition of Saccharomyces cerevisiae alpha-glucosidase
[33] = Inhibition of LPS-induced IL-1beta expression in human U-937 cells preincubated for 1 hr followed by LPS addition and measured after 24 hrs by ELISA; type: functional, cell-based
Saccharomyces cerevisiae [34] = experiment: Potency index, ratio of Myrrhanone-B IC50 to test compound IC50 for inhibition of Saccharomyces cerevisiae alpha-glucosidase

| IC50 (U-87 MG) [µM] | IC50 (DU-145) [µM] | IC50 (A549) [µM] | SMILES | Activity (PC-3 [1]) | Activity (PC-3 [2]) [%] | Activity (PC-3 [3]) [%] | Activity (PC-3 [4]) | Activity (PC-3 [5]) [%] | Activity (PC-3 [7]) | Activity (PC-3 [8]) [%] | Activity (PC-3 [9]) [%] | Activity (PC-3 [10]) [%] | Activity (PC-3 [11]) [%] | Activity (PC-3 [12]) | Activity (PC-3 [13]) | Activity (PC-3 [14]) [%] | Activity (PC-3 [15]) [%] | Activity (PC-3 [16]) [%] | Activity (PC-3 [17]) [%] | IC50 (L132) [µM] | also measured |
| --- | --- | --- | --- | --- | --- | --- | --- | --- | --- | --- | --- | --- | --- | --- | --- | --- | --- | --- | --- | --- | --- |
| > 150 | 28.4 | 42.8 | C/C(=C\CC/C(C)=C/CC[C@@H]1[C@@]2(C)CCC(=O)C(C)(C)[C@H]2CC[C@@]1(C)O)CC/C=C(\C)C(=O)OCc1cn(-c2cccc(O)c2)nn1 | Dose-dependent effect | 54.8 | 23.4 | Active | 10.9 | Active | 2.16 | 62.9 | 66.5 | 0.8 | Active | Active | 1.4 | 22.7 | 7.54 | 8.26 | 146 | IC50 [6]: 14.2 µM; Activity (PC-3 [18]): 8.7%; viability at 5 µM (PC-3 [19]): 29.3%; IC50 (PC-3 [20]): 6.57 µM; Activity (PC-3 [21]): 22%; IC50 (MDA-MB-231): 139 µM; Activity (PC-3 [22]): 66.5%; IC50 (SiHa): 48 µM; Activity (PC-3 [23]): 12.1%; viability at 7.5 µM (PC-3 [24]): 31.7%; Activity (PC-3 [25]): 58.8%; Activity (PC-3 [26]): Active; Activity (PC-3 [27]): Active; viability at 2.5 µM (PC-3 [28]): 27.7%; Activity (PC-3 [29]): 1%; IC50 (HT-29): 38.6 µM; Activity (PC-3 [30]): 2.09% |
|  | > 150 | > 150 | C/C(=C\CC/C(C)=C/CC[C@@H]1[C@@]2(C)CCC(=O)C(C)(C)[C@H]2CC[C@@]1(C)O)CC/C=C(\C)C(=O)OCc1cn(-c2ccccc2[N+](=O)[O-])nn1 |  |  |  |  |  |  |  |  |  |  |  |  |  |  |  |  | > 150 | IC50 [31]: 9.05 µM; Ratio IC50 (Saccharomyces cerevisiae [32]): 767; IC50 [33]: 8.97 µM; Ratio IC50 (Saccharomyces cerevisiae [34]): 60.2 |
|  | > 150 | > 150 | C/C(=C\CC/C(C)=C/CC[C@@H]1[C@@]2(C)CCC(=O)C(C)(C)[C@H]2CC[C@@]1(C)O)CC/C=C(\C)C(=O)OCc1cn(-c2ccc([N+](=O)[O-])cc2)nn1 |  |  |  |  |  |  |  |  |  |  |  |  |  |  |  |  | > 150 | Ratio IC50 (Saccharomyces cerevisiae [32]): 767; Ratio IC50 (Saccharomyces cerevisiae [34]): 60.2 |
| 75.8 | 33.1 | 28.1 | C/C(=C\CC/C(C)=C/CC[C@@H]1[C@@]2(C)CCC(=O)C(C)(C)[C@H]2CC[C@@]1(C)O)CC/C=C(\C)C(=O)OCc1cn(C[C@@H]2O[C@H](n3ccc(=O)[nH]c3=O)C[C@H]2O)nn1 | Dose-dependent effect | 58.3 | 11.1 | Active | 12.5 | Active | 40.8 | 64.6 | 41 | 0.9 | Active | Active | 1 | 16.6 | 6.76 | 8.38 | 148 | IC50 [31]: 8.88 µM; Activity (PC-3 [18]): 8.6%; viability at 5 µM (PC-3 [19]): 27.1%; IC50 (PC-3 [20]): 10.8 µM; Activity (PC-3 [21]): 38%; IC50 (MDA-MB-231): 26.3 µM; IC50 [33]: 9.25 µM; Activity (PC-3 [22]): 68.7%; IC50 (SiHa): 29.3 µM; Activity (PC-3 [23]): 12.8%; viability at 7.5 µM (PC-3 [24]): 27.9%; Activity (PC-3 [25]): 59.4%; Activity (PC-3 [26]): Active; Activity (PC-3 [27]): Active; viability at 2.5 µM (PC-3 [28]): 26.9%; Activity (PC-3 [29]): 1%; IC50 (HT-29): 34.1 µM; Activity (PC-3 [30]): 5.96% |
